Measurements: patent US20050171004A1, “Use of cardiotrophin-1 to promote wound healing and counteract overt fibrosis” (priority 2003, published 2005)

Assays:
cardiac fibroblasts [1] = test: Western analysis of myosin light chain phosphorylation; type: cell-based, rat; conditions: co-incubation with inhibitor, 30 minutes
Procedure: (§1) Protein concentrations of tissue and cell lysates were determined by the BCA method (Smith et al., 1985, Anal Biochem 150: 76-85). Proteins were separated by 8-12% SDS-PAGE and transferred to PVDF membrane (Roche, Indianapolis, Ind.) for 1 hour at 300 mA for small proteins or for 2 hours at 500 mA for proteins greater than 100 kDa. Membranes were blocked with 5% non-fat skim milk in tris-buffered saline containing 0.2% Tween 20 (TBST). Proteins were visualized with ECL Plus (Amersham) after probing with primary and secondary antibodies. Band intensity was quantified using a CCD camera imaging densitometer (GS670, Bio-Rad Laboratories (Canada) Ltd. Mississauga, Ontario).
The infarct zone is repopulated by interstitial fibroblasts that infiltrate the scar after MI. […] Similar results were obtained when using the Costar Transwell® system (data not shown). To determine how the chemotactic response is transduced, we used specific inhibitors of intracellular signaling pathways. […] This effect could be blunted by co-incubation with AG490 (FIG. 22). […] Since activation of myosin motors is required for effective cell migration, and CT-1 induced migration could be inhibited by co-incubation with a myosin light chain kinase inhibitor, we sought to determine the effect of CT-1 on the phosphorylation status of myosin light chain. Myosin light chain regulates the ATPase activity of myosin heavy chain, and thus overall contractile activity. […] Myosin light chain phosphorylation could be prevented by co-incubation with ML-7 or W7 but not AG490 or PP2 (FIG. 25b).

cardiac fibroblasts [2] = test: Protein synthesis assay (3H-leucine incorporation); type: cell-based, rat; conditions: co-incubation with inhibitor, CT-1 10 ng/mL
Procedure: Protein synthesis was determined using the methods of Wolf and Neilson (Wolf and Neilson, 1990, Am J Physiol 259: 768-777). 2.5×10^4 cells (counted with a hemacytometer) were loaded into each well of 24-well plates, allowed to attach overnight, then rendered quiescent in serum free DMEM/F12 for 24 hours. Cells were stimulated with CT-1 for an additional 24 hours in the presence of 2 μCi/mL ^3H-leucine with or without inhibitors of signaling pathways. The culture media was aspirated, cells rinsed twice with phosphate buffered saline and proteins precipitated by two incubations with 10% TCA at room temperature. The precipitated protein was solubilized in 300 μl lysis buffer containing 0.5 M NaOH and 1% Triton X-100 at room temperature for 15 minutes. The lysate was transferred to scintillation vials, and beta emission was determined with 3 ml Ecolume scintillation fluid (ICN Pharmaceuticals) and a scintillation counter (LS6500, Beckman Coulter, Fullerton, Calif.).

cardiac fibroblasts [3] = test: Western analysis of phosphorylation of translational regulatory proteins; type: cell-based, rat; conditions: co-incubation with inhibitor
Procedure: as §1
To determine the effect of CT-1 on protein synthesis in cardiac fibroblasts we measured incorporation of ^3H-labeled leucine. […] Since the activity of translational regulatory proteins is modified by phosphorylation, we used phospho-specific antibodies to determine if CT-1 directly influenced the activity of these regulatory proteins.
We then determined the effect of pharmacologic inhibitors on the activation of this signaling cascade.

cardiac fibroblasts [4] = test: Wounded monolayer model, cortactin immunostaining; type: cell-based, rat; conditions: co-incubation with inhibitor
Procedure: Cardiac fibroblasts were seeded onto coverslips in 6-well dishes and allowed to proliferate. Once the cells were near confluency, they were serum deprived for 24 hours. A scrape was made down the middle of the coverslip with the blunt end of a 1 ml syringe and the media was changed again. Cells were further incubated in the presence or absence of CT-1 and inhibitors at specified concentrations for specified times. The cells were then subjected to immunofluorescence staining as described herein.

angiotensinogen mRNA = conditions: cited from earlier work
other kinases = conditions: cited from earlier work

CC(C)(C)n1nc(-c2ccc(Cl)cc2)c2c(N)ncnc21 [PP2]
effect on CT-1 induced myosin light chain phosphorylation (cardiac fibroblasts [1]): not

C[S+]([O-])c1ccc(-c2nc(-c3ccncc3)c(-c3ccc(F)cc3)[nH]2)cc1 (stereo not drawn) [SB203580]
effect on CT-1 induced protein synthesis (3H-leucine uptake) (cardiac fibroblasts [2]): suppressed | effect on CT-1 induced phosphorylation of Akt, p70 S6 kinase and Mnk1 (cardiac fibroblasts [3]): suppressed

O=S(=O)(c1cccc2c(I)cccc12)N1CCCNCC1 [ML-7]
effect on CT-1 induced myosin light chain phosphorylation (cardiac fibroblasts [1]): prevented

NCCCCCCNS(=O)(=O)c1cccc2c(Cl)cccc12 [W7]
effect on CT-1 induced myosin light chain phosphorylation (cardiac fibroblasts [1]): prevented

N#C/C(=C\c1ccc(O)c(O)c1)C(=O)NCc1ccccc1 [AG490, Tyrphostin B42]
effect on CT-1 induced cortactin localization at the leading edge (cardiac fibroblasts [4]): blunted | angiotensinogen mRNA production in response to CT-1 stimulation (angiotensinogen mRNA): attenuate | effect on CT-1 induced protein synthesis (3H-leucine uptake) (cardiac fibroblasts [2]): suppressed | effect on CT-1 induced activation of ERK 1/2, p38 MAPK, mTOR, p70 S6 kinase S421/T424, or S6 ribosomal protein (cardiac fibroblasts [3]): did not significantly affect | effect on CT-1 induced phosphorylation of Akt at both sites, p70 S6 kinase T389, Mnk1, eIF4E and 4E-BP1 (cardiac fibroblasts [3]): suppressed | effect on CT-1 induced myosin light chain phosphorylation (cardiac fibroblasts [1]): not

COc1cccc(-c2cc(=O)c3ccccc3o2)c1N [PD98059]
effect on CT-1 induced protein synthesis (3H-leucine uptake) (cardiac fibroblasts [2]): suppressed | effect on CT-1 induced phosphorylation of Akt, mTOR, p70 S6 kinase, 4EB-P1 and S6 ribosomal protein (cardiac fibroblasts [3]): lesser effect | effect on basal and CT-1 induced phosphorylation of ERK 1/2, Mnk1, and eIF4E (cardiac fibroblasts [3]): greatest inhibitory effect | concentration at which selectivity is maintained (other kinases): ≤ 50 µM
